Legend:
[1] = pI (analytical data, Table 2); format: physicochemical
Description: Using substantially the procedures of both Examples 1 and 2, the compounds of Examples 3-15 were obtained by using the appropriate glycopeptide and amine starting materials.

[2] = tested on: Staphylococcus haemolyticus; assay: standard microtiter assay, minimum inhibitory concentration; format: cell-based; conditions: Test Organism 7, Staphylococcus haemolyticus
Description: (§1) Representative results of standard microtiter assays are reported in Table 1 which follows, as the minimum inhibitory concentration of antibiotic (mg/ml). In Table 1, test organisms 1-5 were different strains of Staphylococcus aureus; 6, 8, 11, 13 and 14 were different strains of Staphylococcus epidermidis; 7 was a Staphylococcus haemolyticus; 9 and 10 were different strains of Streptococcus faecalis; and 12 was a Staphylococcus saprophyticus.

[3] = tested on: Staphylococcus saprophyticus; assay: as above; format: cell-based; conditions: Test Organism 12, Staphylococcus saprophyticus
Description: as §1

Staphylococcus aureus = assay: as above; format: cell-based; conditions: for minimum inhibitory concentration of antibiotic, Test Organism 1: Test Organism 1, strain of Staphylococcus aureus; for minimum inhibitory concentration of antibiotic, Test Organism 2: Test Organism 2, strain of Staphylococcus aureus; for minimum inhibitory concentration of antibiotic, Test Organism 3: Test Organism 3, strain of Staphylococcus aureus; for minimum inhibitory concentration of antibiotic, Test Organism 4: Test Organism 4, strain of Staphylococcus aureus; for minimum inhibitory concentration of antibiotic, Test Organism 5: Test Organism 5, strain of Staphylococcus aureus
Description: as §1

Streptococcus faecalis = assay: as above; format: cell-based; conditions: for minimum inhibitory concentration of antibiotic, Test Organism 9: Test Organism 9, strain of Streptococcus faecalis; for minimum inhibitory concentration of antibiotic, Test Organism 10: Test Organism 10, strain of Streptococcus faecalis
Description: as §1

[4] = tested on: Staphylococcus epidermidis; assay: as above; format: cell-based; set-up: minimum inhibitory concentration of antibiotic, Test Organism 8: unit not given here; conditions: for minimum inhibitory concentration of antibiotic, Test Organism 6: Test Organism 6, strain of Staphylococcus epidermidis; for minimum inhibitory concentration of antibiotic, Test Organism 11: Test Organism 11, strain of Staphylococcus epidermidis; for minimum inhibitory concentration of antibiotic, Test Organism 13: Test Organism 13, strain of Staphylococcus epidermidis; for minimum inhibitory concentration of antibiotic, Test Organism 14: Test Organism 14, strain of Staphylococcus epidermidis; for minimum inhibitory concentration of antibiotic, Test Organism 8: Test Organism 8, strain of Staphylococcus epidermidis
Description: as §1

Row | pI [1] | Structure (SMILES) | minimum inhibitory concentration of antibiotic, Test Organism 7 [2] [µg/mL] | minimum inhibitory concentration of antibiotic, Test Organism 12 [3] [µg/mL] | minimum inhibitory concentration of antibiotic, Test Organism 1 (Staphylococcus aureus) [µg/mL] | minimum inhibitory concentration of antibiotic, Test Organism 2 (Staphylococcus aureus) [µg/mL] | minimum inhibitory concentration of antibiotic, Test Organism 3 (Staphylococcus aureus) [µg/mL] | minimum inhibitory concentration of antibiotic, Test Organism 4 (Staphylococcus aureus) [µg/mL] | minimum inhibitory concentration of antibiotic, Test Organism 5 (Staphylococcus aureus) [µg/mL] | minimum inhibitory concentration of antibiotic, Test Organism 9 (Streptococcus faecalis) [µg/mL] | minimum inhibitory concentration of antibiotic, Test Organism 6 [4] [µg/mL] | minimum inhibitory concentration of antibiotic, Test Organism 11 [4] [µg/mL] | minimum inhibitory concentration of antibiotic, Test Organism 13 [4] [µg/mL] | minimum inhibitory concentration of antibiotic, Test Organism 14 [4] [µg/mL] | minimum inhibitory concentration of antibiotic, Test Organism 10 (Streptococcus faecalis) [µg/mL] | minimum inhibitory concentration of antibiotic, Test Organism 8 [4]
1 | 7.1 | CNC1C(=O)NC2C(=O)NC(C(=O)NC3C(=O)NC4C(=O)NC(C(=O)NC(C(N)=O)c5cc(O)cc(OC6OC(CO)C(O)C(O)C6O)c5-c5cc4ccc5O)C(O)c4cc(Cl)c(c(Cl)c4)Oc4cc3cc(c4O)Oc3ccc(cc3Cl)C2O)c2cc(cc(O)c2Cl)Oc2cc1ccc2O (stereo not drawn) [Compound 2n, Ardacin mannosylaglycone amide] | 1600 | 1600 | 200 | 800 | 100 | 3100 | 400 | 200 | 1600 | 6300 | 1600 | 1600 |  | 
2 | 7.8 | CNC1C(=O)NC2C(=O)NC(C(=O)NC3C(=O)NC4C(=O)NC(C(=O)NC(C(=O)NCCN)c5cc(O)cc(OC6OC(CO)C(O)C(O)C6O)c5-c5cc4ccc5O)C(O)c4cc(Cl)c(c(Cl)c4)Oc4cc3cc(c4O)Oc3ccc(cc3Cl)C2O)c2cc(cc(O)c2Cl)Oc2cc1ccc2O (stereo not drawn) [Compound 2o, Ardacin mannosylaglycone-(2-aminoethyl amide)] | 1600 | 400 | 400 | 400 | 400 | 400 | 400 | 200 | 400 | 800 | 100 |  | 200 | 0.8
3 | 7.3 | CNC1C(=O)NC2C(=O)NC(C(=O)NC3C(=O)NC4C(=O)NC(C(=O)NC(C(N)=O)c5cc(O)cc(OC6OC(CO)C(O)C(O)C6O)c5-c5cc4ccc5O)C(O)c4ccc(c(Cl)c4)Oc4cc3cc(c4OC3OC(C(N)=O)C(O)C(O)C3NC(=O)CCCCCCCCC(C)C)Oc3ccc(cc3)C2O)c2cc(cc(O)c2Cl)Oc2cc1ccc2O (stereo not drawn) [Compound 2q, AAJ-271 C1 diamide] | 3100 | 12500 | 800 | 1600 | 800 | > 1600 | 1600 | 200 | 12500 | 12500 | 3100 | 3100 | 200 | 6.3

From US4882313A, “Carboxamide derivatives of glycopeptides” (SmithKline Beckman Corporation, priority 1987, dated 1989)
